Results reported in US20260130933A1, “PHARMACEUTICAL COMPOSITION FOR PREVENTION OR TREATMENT OF NEPHROPATHY AND/OR DIABETES MELLITUS, COMPRISING ENAVOGLIFLOZIN” (DAEWOONG PHARMACEUTICAL CO., LTD., priority 2022, published 2026).

Assay: Example 2: phase 3 trial, enavogliflozin 0.3 mg vs dapagliflozin 10 mg once a day for 24 weeks added to metformin in patients with type 2 diabetes (same efficacy, exploratory and safety endpoints)
Assay type: in vivo, human
Conditions: for fasting Total cholesterol, Mean (SD) / fasting Total cholesterol, Median / Change from baseline in Total cholesterol, ANCOVA LS mean (SE) / Change from baseline in Total cholesterol, Mean (SD) / Change from baseline in total cholesterol, Median: modified per-protocol set 1; for fasting Total cholesterol, Mean (SD) / fasting Total cholesterol, Median / Change from baseline in FPG, ANCOVA LS mean (SE) / Change from baseline in FPG, Mean (SD) / Change from baseline in FPG, Median / Change from baseline in HbA1c, ANCOVA LS mean (SE) / Change from baseline in HbA1c, Mean (SD) / Change from baseline in HbA1c, Median / Change from baseline in body weight, ANCOVA LS mean (SE) / Change from baseline in body weight, Mean (SD) / Change from baseline in body weight, Median / Change from baseline in fasting c-peptide, ANCOVA LS mean (SE) / Change from baseline in fasting c-peptide, Mean (SD) / Change from baseline in fasting c-peptide, Median / FPG, Mean (SD) / FPG, Median / HbA1c, Mean (SD) / HbA1c, Median / Subjects achieving HbA1c target of <6.5%, (%) / Subjects achieving therapeutic glycemic response, (%) / body weight, Mean (SD) / body weight, Median / fasting c-peptide, Mean (SD) / fasting c-peptide, Median / Change from baseline in Total cholesterol, ANCOVA LS mean (SE) / Change from baseline in Total cholesterol, Mean (SD) / Change from baseline in total cholesterol, Median: enavogliflozin 0.3 mg, dapagliflozin 10 mg; for Change from baseline in FPG, ANCOVA LS mean (SE) / Change from baseline in FPG, Mean (SD) / Change from baseline in FPG, Median / Change from baseline in HbA1c, ANCOVA LS mean (SE) / Change from baseline in HbA1c, Mean (SD) / Change from baseline in HbA1c, Median / Change from baseline in body weight, ANCOVA LS mean (SE) / Change from baseline in body weight, Mean (SD) / Change from baseline in body weight, Median / Change from baseline in fasting c-peptide, ANCOVA LS mean (SE) / Change from baseline in fasting c-peptide, Mean (SD) / Change from baseline in fasting c-peptide, Median / FPG, Mean (SD) / FPG, Median / HbA1c, Mean (SD) / HbA1c, Median / Subjects achieving HbA1c target of <6.5%, (%) / Subjects achieving therapeutic glycemic response, (%) / body weight, Mean (SD) / body weight, Median / fasting c-peptide, Mean (SD) / fasting c-peptide, Median: per-protocol set
Procedure: Subjects who met the inclusion/exclusion criteria were administered a placebo of the clinical trial drug under single-blind (subject blinding) conditions during a 2-week run-in period while continuing to receive metformin. […] The randomized subjects were administered two tablets of the clinical trial drug for each administration group once a day, and then visited the institution at weeks 6, 12, 18, and 24 during the 24-week administration period to conduct efficacy and safety evaluations.
• 1. Change in HbA1c at week 24 after administration of clinical trial drug compared to Visit 2 (randomization)
• 1. Change in HbA1c at each time point of weeks 6, 12, and 18 after administration of clinical trial drug compared to Visit 2 (randomization) • 2. Change in FPG at each time point of weeks 6, 12, 18, and 24 after administration of clinical trial drug compared to Visit 2 (randomization) • 3. Proportion of subjects achieving HbA1c<7% at each time point of weeks 6, 12, 18, and 24 after administration of clinical trial drug • 4. Proportion of subjects achieving HbA1c<6.5% at each time point of weeks 6, 12, 18, and 24 after administration of clinical trial drug • 5. Proportion of subjects achieving therapeutic response (HbA1c change (HbA1c at Visit 2-HbA1c at each evaluation time point)>0.5% or HbA1c<7% at each evaluation time point compared to Visit 2 (randomization)) at each time point of weeks 6, 12, 18 and 24 after administration of clinical trial drug
• 1. Change in fasting c-peptide at each time point of weeks 6, 12, 18, and 24 after administration of clinical trial drug compared to Visit 2 (randomization) • 2. Change in body weight at each time point of weeks 6, 12, 18, and 24 after administration of clinical trial drug compared to Visit 2 (randomization) • 3. Change in fasting lipid concentration (total cholesterol, LDL-C, HDL-C, and triglycerides) at each time point of weeks 6, 12, 18, and 24 after administration of clinical trial drug compared to Visit 2 (randomization) • 4. Changes in systolic or diastolic blood pressure at each time point of weeks 6, 12, 18, and 24 after administration of clinical trial drug compared to Visit 2 (randomization) • 5. Changes in β-cell function and insulin resistance measured by HOMA-β and HOMA-IR at each time point of weeks 6, 12, 18, and 24 after administration of clinical trial drug compared to Visit 2 (randomization) • 6. Changes in renal function-related indicators (UACR, UGCR) measured by UACR at each time point of weeks 6, 12, 18, and 24 after administration of clinical trial drug compared to Visit 2 (randomization) • 7. Changes in obesity-related indicators (adiponectin, leptin) at each time point of weeks 6, 12, 18, and 24 after administration of clinical trial drug compared to Visit 2 (randomization)

[1] = week 24, listed as dapagliflozin

## CCOc1ccc(Cc2cc([C@@H]3O[C@H](CO)[C@@H](O)[C@H](O)[C@H]3O)ccc2Cl)cc1 [Dapagliflozin, reference compound]
Week 12
  fasting Total cholesterol, Mean (SD): 143.19(28.59) mg/dL
  fasting Total cholesterol, Median: 138.00 mg/dL
  Change from baseline in FPG, ANCOVA LS mean (SE): -30.11 mg/dL
  Change from baseline in FPG, Mean (SD): -31.89 mg/dL
  Change from baseline in FPG, Median: -23.50 mg/dL
  Change from baseline in HbA1c, ANCOVA LS mean (SE): −0.79 % p
  Change from baseline in HbA1c, Mean (SD): −0.74 % p
  Change from baseline in HbA1c, Median: −0.66 % p
  Change from baseline in body weight, ANCOVA LS mean (SE): −2.63(0.23) kg
  Change from baseline in body weight, Mean (SD): −2.61(1.66) kg
  Change from baseline in body weight, Median: -2.55 kg
  Change from baseline in fasting c-peptide, ANCOVA LS mean (SE): −0.09(0.02) ng/mL
  Change from baseline in fasting c-peptide, Mean (SD): −0.08(0.18) ng/mL
  Change from baseline in fasting c-peptide, Median: -0.10 ng/mL
  FPG, Mean (SD): 117.78 mg/dL
  FPG, Median: 116.50 mg/dL
  HbA1c, Mean (SD): 6.94%
  HbA1c, Median: 6.83%
  Subjects achieving HbA1c target of <6.5%, (%): (26.14) %
  Subjects achieving therapeutic glycemic response, (%): (79.55) %
  body weight, Mean (SD): 68.19(11.65) kg
  body weight, Median: 66.90 kg
  fasting c-peptide, Mean (SD): 0.66(0.23) ng/mL
  fasting c-peptide, Median: 0.65 ng/mL
Week 18
  FPG change from baseline, LS mean (SE): −31.13(1.63) mg/dL
  HOMA-IR change from baseline, LS mean (SE): −1.47(0.12)
  HOMA-β change from baseline, LS mean (SE): 13.49(3.08)
  HbA1c change from baseline, LS mean (SE): −0.70(0.06) % p
  LDL-C change from baseline, LS mean (SE): 2.58(1.89) mg/dL
  Subjects achieving HbA1c target of <7%: (57.47) %
  Subjects achieving HbA1c<6.5%: 25.29%
  Subjects achieving therapeutic response (HbA1c change >0.5% or HbA1c<7%): 73.56%
  UACR change from baseline, LS mean (SE): −12.95(5.11) g/kg
  diastolic blood pressure change from baseline, LS mean (SE): −4.10(0.81) mmHg
  fasting c-peptide change from baseline, LS mean (SE): −0.06(0.19) ng/ml
  leptin change from baseline, LS mean (SE): −1.23(0.53) ng/mL
  Change from baseline in Total cholesterol, ANCOVA LS mean (SE): 9.57(2.20) mg/dL
  Change from baseline in Total cholesterol, Mean (SD): 10.18(22.74) mg/dL
  Change from baseline in total cholesterol, Median: 9.00 mg/dL
  fasting Total cholesterol, Mean (SD): 148.48(30.10) mg/dL
  fasting Total cholesterol, Median: 151.50 mg/dL
  Change from baseline in FPG, ANCOVA LS mean (SE): -31.13 mg/dL
  Change from baseline in FPG, Mean (SD): -32.55 mg/dL
  Change from baseline in FPG, Median: -26.00 mg/dL
  Change from baseline in HbA1c, ANCOVA LS mean (SE): −0.70 % p
  Change from baseline in HbA1c, Mean (SD): −0.66 % p
  Change from baseline in HbA1c, Median: −0.61 % p
  Change from baseline in body weight, ANCOVA LS mean (SE): −3.16(0.26) kg
  Change from baseline in body weight, Mean (SD): −3.19(1.93) kg
  Change from baseline in body weight, Median: -3.00 kg
  Change from baseline in fasting c-peptide, ANCOVA LS mean (SE): −0.06(0.02) ng/mL
  Change from baseline in fasting c-peptide, Mean (SD): −0.06(0.19) ng/mL
  Change from baseline in fasting c-peptide, Median: -0.03 ng/mL
  FPG, Mean (SD): 116.53 mg/dL
  FPG, Median: 115.00 mg/dL
  HbA1c, Mean (SD): 7.02%
  HbA1c, Median: 6.90%
  Subjects achieving HbA1c target of <6.5%, (%): (25.29) %
  Subjects achieving therapeutic glycemic response, (%): (73.56) %
  body weight, Mean (SD): 67.54(11.96) kg
  body weight, Median: 67.00 kg
  fasting c-peptide, Mean (SD): 0.69(0.24) ng/mL
  fasting c-peptide, Median: 0.66 ng/mL
Week 18, listed as dapagliflozin
  Subjects achieving HbA1c target of <7%: 57.47%
Week 24
  FPG change from baseline, LS mean (SE): −29.14(1.82) mg/dL
  HOMA-IR change from baseline, LS mean (SE): −1.31(0.14)
  HOMA-β change from baseline, LS mean (SE): 11.93(3.25)
  HbA1c change from baseline, LS mean (SE): −0.75 % p
  HbA1c change from baseline, Mean (SD): −0.71 % p
  HbA1c, Mean: 6.97%
  LDL-C change from baseline, LS mean (SE): 0.93(1.98) mg/dL
  Subjects achieving HbA1c target of <7%: (62.22) %
  Subjects achieving HbA1c<6.5%: 27.78%
  Subjects achieving therapeutic response (HbA1c change >0.5% or HbA1c<7%): 75.56%
  UACR change from baseline, LS mean (SE): −17.37(3.48) g/kg
  UGCR change from baseline, LS mean (SE): 44.94(2.18) mg/mg
  diastolic blood pressure change from baseline, LS mean (SE): −4.26(0.67) mmHg
  fasting c-peptide change from baseline, LS mean (SE): −0.04(0.26) ng/ml
  leptin change from baseline, LS mean (SE): −1.28(0.53) ng/mL
  Change from baseline in Total cholesterol, ANCOVA LS mean (SE): 6.74(2.30) mg/dL
  Change from baseline in Total cholesterol, Mean (SD): 9.15(22.59) mg/dL
  Change from baseline in total cholesterol, Median: 10.00 mg/dL
  fasting Total cholesterol, Mean (SD): 147.02(27.55) mg/dL
  fasting Total cholesterol, Median: 145.00 mg/dL
  Change from baseline in FPG, ANCOVA LS mean (SE): -29.14 mg/dL
  Change from baseline in FPG, Mean (SD): -31.42 mg/dL
  Change from baseline in FPG, Median: -24.00 mg/dL
  Change from baseline in body weight, ANCOVA LS mean (SE): −3.58(0.34) kg
  Change from baseline in body weight, Mean (SD): −3.60(2.14) kg
  Change from baseline in body weight, Median: -3.40 kg
  Change from baseline in fasting c-peptide, ANCOVA LS mean (SE): −0.04(0.02) ng/mL
  Change from baseline in fasting c-peptide, Mean (SD): −0.04(0.26) ng/mL
  Change from baseline in fasting c-peptide, Median: -0.07 ng/mL
  FPG, Mean (SD): 117.91 mg/dL
  FPG, Median: 116.50 mg/dL
  Subjects achieving HbA1c target of <6.5%, (%): (27.78) %
  Subjects achieving therapeutic glycemic response, (%): (75.56) %
  body weight, Mean (SD): 66.92(11.89) kg
  body weight, Median: 66.05 kg
  fasting c-peptide, Mean (SD): 0.70(0.30) ng/mL
  fasting c-peptide, Median: 0.66 ng/mL
[1]
  HbA1c change from baseline, LS mean (SE): −0.75(0.06) % p
  HbA1c change from baseline, Mean (SD): −0.71(0.76) % p
  Subjects achieving HbA1c target of <7%: 62.22%
